In PubChem BioAssay AID248 (DTP/NCI, 2004):
“And” between values parts separate entries of the source, which are not always exact repeats. Equal values may be shown once. Toxic doses and inconclusive results are not listed. Rule as the data show it: active = T/C of 150% or more; inactive = T/C below 125%.

System: L1210 leukemia ip in BDF1 mice, survival T/C
Test: NCI In Vivo Anticancer Drug Screen. Data for tumor model L1210 Leukemia (intraperitoneal) in B6D2F1 (BDF1) mice
Details: endpoint: mean survival time, higher = longer survival
Method in brief: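 Tumor cells were implanted, animals were treated, and survival was followed. The result divides the treated measurement by the vehicle-control measurement.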

[1] = dose: 100.0 mg/kg/injection, schedule: Q01DX001 (ip), vehicle: saline
[2] = dose: 200.0 mg/kg/injection, schedule: Q01DX001 (ip), vehicle: saline
[3] = dose: 100.0 mg/kg/injection, schedule: Q04DX002 (ip), vehicle: saline with Tween-80
[4] = dose: 200.0 mg/kg/injection, schedule: Q04DX002 (ip), vehicle: saline with Tween-80
[5] = dose: 400.0 mg/kg/injection, schedule: Q04DX002 (ip), vehicle: saline with Tween-80
[6] = dose: 100.0 mg/kg/injection, schedule: Q04DX002 (ip), vehicle: Klucel (hydroxypropylcellulose) (HPC)
[7] = dose: 200.0 mg/kg/injection, schedule: Q04DX002 (ip), vehicle: Klucel (hydroxypropylcellulose) (HPC)
[8] = dose: 400.0 mg/kg/injection, schedule: Q04DX002 (ip), vehicle: Klucel (hydroxypropylcellulose) (HPC)
[9] = dose: 75.0 mg/kg/injection, schedule: Q01DX001 (ip), vehicle: saline
[10] = dose: 150.0 mg/kg/injection, schedule: Q01DX001 (ip), vehicle: saline
[11] = dose: 100.0 mg/kg/injection, schedule: Q01DX009 (ip), vehicle: Klucel (hydroxypropylcellulose) (HPC)
[12] = dose: 100.0 mg/kg/injection, schedule: Q04DX003 (ip), vehicle: Klucel (hydroxypropylcellulose) (HPC)
[13] = dose: 200.0 mg/kg/injection, schedule: Q04DX003 (ip), vehicle: Klucel (hydroxypropylcellulose) (HPC)
[14] = dose: 400.0 mg/kg/injection, schedule: Q04DX003 (ip), vehicle: Klucel (hydroxypropylcellulose) (HPC)
[15] = dose: 100.0 mg/kg/injection, schedule: Q01DX009 (ip), vehicle: saline with Tween-80
[16] = dose: 200.0 mg/kg/injection, schedule: Q01DX009 (ip), vehicle: saline with Tween-80
[17] = dose: 200.0 mg/kg/injection, schedule: Q01DX009 (ip), vehicle: Klucel (hydroxypropylcellulose) (HPC)
[18] = dose: 400.0 mg/kg/injection, schedule: Q01DX009 (ip), vehicle: Klucel (hydroxypropylcellulose) (HPC)

Measured: T/C

c1ccc(N=P(c2ccccc2)(c2ccccc2)c2ccccc2)cc1
inactive: [1] 94 % of control | [2] 94 % of control

COc1cccc(CNc2ccc(C)c(Cl)c2)c1OC
inactive: dose: 100.0 mg/kg/injection, schedule: Q01DX009 (ip), vehicle: gum acacia 99 % of control | dose: 100.0 mg/kg/injection, schedule: Q04DX003 (ip), vehicle: gum acacia 104 % of control | dose: 200.0 mg/kg/injection, schedule: Q01DX009 (ip), vehicle: gum acacia 108 % of control | dose: 200.0 mg/kg/injection, schedule: Q04DX003 (ip), vehicle: gum acacia 97 % of control | dose: 400.0 mg/kg/injection, schedule: Q01DX009 (ip), vehicle: gum acacia 87 % of control | dose: 400.0 mg/kg/injection, schedule: Q04DX003 (ip), vehicle: gum acacia 90 % of control

CN(C)c1ccc(C(=O)CCCN2CCC(O)(c3ccc(C(F)(F)F)cc3)CC2)cc1
inactive: dose: 50.0 mg/kg/injection, schedule: Q01DX001 (ip), vehicle: Klucel (hydroxypropylcellulose) (HPC) 97 % of control | dose: 100.0 mg/kg/injection, schedule: Q01DX001 (ip), vehicle: Klucel (hydroxypropylcellulose) (HPC) 96 % of control | dose: 200.0 mg/kg/injection, schedule: Q01DX001 (ip), vehicle: Klucel (hydroxypropylcellulose) (HPC) 105 % of control

O=[N+]([O-])c1ccccc1NC1OC(CO)C(O)C1O (configuration not stated)
inactive: [3] 102 % of control | [4] 98 % of control | [5] 102 % of control

CCCCCC(CCCCC)c1ccccn1
inactive: [1] 94 % of control | [2] 103 % of control | dose: 400.0 mg/kg/injection, schedule: Q01DX001 (ip), vehicle: saline 100 % of control

c1ccc(-c2nc3ccccc3[nH]2)cc1
inactive: dose: 55.0 mg/kg/injection, schedule: Q01DX Z (ip), vehicle: methylcellulose (MC) 107 % of control | dose: 83.0 mg/kg/injection, schedule: Q01DX Z (ip), vehicle: methylcellulose (MC) 103 % of control | [6] 109 % of control and 95 % of control | dose: 125.0 mg/kg/injection, schedule: Q01DX Z (ip), vehicle: methylcellulose (MC) 100 % of control | [7] 103 % of control and 106 % of control | [8] 109 % of control and 98 % of control

O=C1CCCC/C1=N/Nc1ccccc1
inactive: dose: 5.0 mg/kg/injection, schedule: Q01DX009 (ip), vehicle: saline with Tween-80 93 % of control | dose: 5.0 mg/kg/injection, schedule: Q04DX003 (ip), vehicle: saline with Tween-80 98 % of control | dose: 10.0 mg/kg/injection, schedule: Q01DX009 (ip), vehicle: saline with Tween-80 102 % of control | dose: 10.0 mg/kg/injection, schedule: Q04DX003 (ip), vehicle: saline with Tween-80 102 % of control | dose: 20.0 mg/kg/injection, schedule: Q01DX009 (ip), vehicle: saline with Tween-80 95 % of control | dose: 20.0 mg/kg/injection, schedule: Q04DX003 (ip), vehicle: saline with Tween-80 99 % of control

Cc1ccccc1NC(=S)NCCC(=O)O
inactive: [3] 105 % of control | [4] 97 % of control | [5] 97 % of control

CCCCCCCC/C=C/CCCCCCCC(=O)NCC[N+]1(C)CCCCC1
inactive: [9] 95 % of control

O=C1c2ccccc2C(=O)c2c(NC(=O)C(Cl)CCl)cccc21 (configuration not stated)
inactive: [9] 94 % of control | [10] 90 % of control and 92 % of control | dose: 300.0 mg/kg/injection, schedule: Q01DX001 (ip), vehicle: saline 97 % of control

C#CC[N+](CC#C)(CC#C)CC#C
inactive: dose: 25.0 mg/kg/injection, schedule: Q01DX009 (ip), vehicle: saline 96 % of control | dose: 50.0 mg/kg/injection, schedule: Q01DX009 (ip), vehicle: saline 102 % of control | dose: 100.0 mg/kg/injection, schedule: Q01DX009 (ip), vehicle: saline 104 % of control

Nc1nnnn1-c1ccc2ccccc2c1
inactive: dose: 100.0 mg/kg/injection, schedule: Q04DX003 (ip), vehicle: saline with Tween-80 101 % of control | dose: 200.0 mg/kg/injection, schedule: Q04DX003 (ip), vehicle: saline with Tween-80 97 % of control | dose: 400.0 mg/kg/injection, schedule: Q04DX003 (ip), vehicle: saline with Tween-80 101 % of control

CC(=O)CC(=O)Nc1cccc([N+](=O)[O-])c1
inactive: [11] 98 % of control | [12] 97 % of control | [13] 91 % of control | [14] 93 % of control

CCNC(=O)N(C)Cc1ccc(Cl)cc1
inactive: [15] 88 % of control | [16] 95 % of control

CCOC(=O)c1ccc(NCc2nnc3nc(N)[nH]c(=O)c3n2)cc1
inactive: dose: 50.0 mg/kg/injection, schedule: Q01DX001 (ip), vehicle: saline with Tween-80 102 % of control | dose: 100.0 mg/kg/injection, schedule: Q01DX001 (ip), vehicle: saline with Tween-80 96 % of control | dose: 200.0 mg/kg/injection, schedule: Q01DX001 (ip), vehicle: saline with Tween-80 98 % of control

Nc1ccc(NC(=S)S)cc1
inactive: [9] 93 % of control | [10] 93 % of control

O=C(COc1ccc(Cl)cc1)Nc1ccc(I)cc1
inactive: [6] 92 % of control | [7] 100 % of control | [8] 96 % of control

O=P(Cc1ccccc1)(OCCCl)Oc1ccccc1 (configuration not stated)
inactive: [11] 102 % of control | [12] 91 % of control | [17] 98 % of control | [13] 96 % of control | [18] 96 % of control | [14] 96 % of control

CCOC(=O)c1c(O)c(=O)[nH]c2ccccc12
inactive: [15] 97 % of control | [3] 101 % of control | [16] 108 % of control | [4] 118 % of control | dose: 400.0 mg/kg/injection, schedule: Q01DX009 (ip), vehicle: saline with Tween-80 101 % of control | [5] 97 % of control

CN(C)N=Nc1ccccc1C(=O)NN
inactive: dose: 18.75 mg/kg/injection, schedule: Q01DX009 (ip), vehicle: Klucel (hydroxypropylcellulose) (HPC) 94 % of control and 110 % of control | dose: 37.5 mg/kg/injection, schedule: Q01DX009 (ip), vehicle: Klucel (hydroxypropylcellulose) (HPC) 105 % of control and 107 % of control | dose: 50.0 mg/kg/injection, schedule: Q01DX001 (ip), vehicle: carboxymethylcellulose (CMC) 101 % of control | dose: 75.0 mg/kg/injection, schedule: Q01DX009 (ip), vehicle: Klucel (hydroxypropylcellulose) (HPC) 100 % of control and 115 % of control | dose: 100.0 mg/kg/injection, schedule: Q01DX001 (ip), vehicle: carboxymethylcellulose (CMC) 101 % of control | dose: 150.0 mg/kg/injection, schedule: Q01DX009 (ip), vehicle: Klucel (hydroxypropylcellulose) (HPC) 107 % of control | dose: 200.0 mg/kg/injection, schedule: Q01DX001 (ip), vehicle: carboxymethylcellulose (CMC) 101 % of control

CCOC(=O)c1cncc(C(=O)OCC)c1
inactive: dose: 50.0 mg/kg/injection, schedule: Q01DX009 (ip), vehicle: Klucel (hydroxypropylcellulose) (HPC) 100 % of control | [11] 100 % of control | [12] 101 % of control | [17] 104 % of control | [13] 92 % of control | [18] 112 % of control | [14] 100 % of control
